Measured values reported in paper PMC4520450, “Procyanidins Negatively Affect the Activity of the Phosphatases of Regenerating Liver” (PLoS ONE, 2015).

Tests used:
[1] = tested on: PRL-3 overexpressing HEK293 cells; test: Wound healing assay; type: cell-based; conditions: for cell migration, wound healing: 7 h, PRL-3 overexpressing cells
Procedure: To study if procyanidin C2 is able to inhibit PRL-1 and PRL-3 in cells, HEK293 cells were treated in a wound-healing assay (see the experimental procedures). […] As a control the empty vector cell line was again utilized. […] The migration speed was for all cell lines similar when treated with 50 μM of 9. To further corroborate these findings we performed additionally a transwell assay as an alternative way to study cell migration.
Fig 6 Wound healing abilities of PRL-1 or PRL-3 overexpressing or empty vector control HEK293 cell lines were analyzed in the presence of compound 9 or medium only. Cells were seeded at a concentration of 800,000 cells per insert and procyanidin C2 (9) was added at a concentration of 25 and 50 μM. A) Pictures of the wound gaps were taken at 0 h and 7 h for both conditions (with and without treatment). B) Quantification of the wound healing experiment. Speed of migration is shown for combined data from different replicates, as mean ± SD (n = 38–88). Two-sided t-tests with Welsh correction were performed for p < 0.05. ns = not significant;***: < 0.001; **: < 0.01; *: < 0.05. C) Effect of polyphenolic compounds in a transwell assay on the cell migration of HEK293 empty vector and PRL-3 overexpressing cell lines. Cells were seeded at a concentration of 100,000 cells per insert and procyanidin C2 (9) was added at a final concentration of 25 and 50 μM. Migration was allowed for 16 h before harvesting and staining with calcein AM for fluorescent readout. Mean ± SD (n = 60–72) is shown for combined data from different replicates. Two-sided t-tests with Welsh correction were performed for p < 0.05. ns = not significant. D) Quantification of wound healing experiment including blocking PRL-1 and PRL-3 with analog 3. Speed of migration is shown for combined data from different replicates, as mean ± SD (n = 63–82). Two-sided t-tests with Welsh correction were performed for p < 0.05.
Wound healing experiments were carried out with μ-dish 35mm culture inserts. 8 × 10^5 cells/mL of the respective HEK293 stable cell lines were seeded into each of the two insert wells and allowed to settle for 40 h in the presence of tetracycline. Then the inserts were gently removed and growth medium supplemented with 7.5% FBS and 0.1% tetracycline was added as well as procyanidin C2 (9) or procyanidin B3 (8) at a final concentration of 25, 50 or 75 μM. For the experiment including blocking of PRLs with analog 3, the latter one was added at a final concentration of 35 μM, followed by addition of procyanidin C2 (9) at either 25 or 50 μM final concentration. Negative controls contained growth medium with FBS only. Pictures of the wound gap were taken at 0 h and 7 h time points. A Zeiss Cellobserver HS microscope was used with 10 × magnitude. For data analysis, in each experiment, the distances between both cell fronts at time point 0 h and 7 h were measured by taking 20 different measuring points. Then all the measurements from different replicates (4) for each experiment were combined and analyzed by t-test using Welsh correction in GraphPad Prism. Data are shown with 99% confidence intervals.

PP1 = target: T1, PP1 (Oryctolagus cuniculus, UniProt P62139); test: DiFMUP assay for PP1; type: biochemical; conditions: 2 mU PP1c, 30 min preincubation, 25°C, DiFMUP, no BSA; mean ± SEM (n = 3–5); read-out: IC50 (Ki) PP1
T1 construct: purchased NewEngland Biolabs; host or cells: E. coli
T1 sequence (P62139 whole entry): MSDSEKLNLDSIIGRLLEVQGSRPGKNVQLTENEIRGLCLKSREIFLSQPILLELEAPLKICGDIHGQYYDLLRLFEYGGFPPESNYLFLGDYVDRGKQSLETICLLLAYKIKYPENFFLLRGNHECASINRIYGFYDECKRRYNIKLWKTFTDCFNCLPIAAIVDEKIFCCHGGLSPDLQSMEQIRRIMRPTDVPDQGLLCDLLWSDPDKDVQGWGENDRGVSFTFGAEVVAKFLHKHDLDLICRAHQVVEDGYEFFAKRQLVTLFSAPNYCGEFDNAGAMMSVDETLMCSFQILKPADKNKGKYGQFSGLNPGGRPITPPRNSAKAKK
Procedure: Fig 2 Effect of polyphenolic compounds 8 (A), 9 (B), 10 (C) and 11 (D) on the phosphatase activity of PRL-1, PRL-2, PRL-3, PP1, and PP2A. Proteins were incubated for 30 min with 0–1000 μM of the corresponding procyandin 8–11. Phosphatase activity was measured in the presence of DiFMUP at 25°C using the concentration corresponding to the KM of each protein. The KM for PRLs was determined separately (PRL-3 = 21 μM, PRL-2 and PRL-1 = 24 μM). The KM for PP1 (91 μM) and for PP2A (100 μM) was taken from the literature. Protein concentrations are 50 nM for all PRLs and 2 mU for PP1 and 0.05 U for PP2A (see the Experimental Procedures). Phosphatase activity in the absence of inhibitors was set as 100%. Data represent means ± standard errors of the mean (n = 3–5).
BSA, which is usually supplemented to the assay buffer for stabilizing the PPs was however excluded, as BSA is known to form complexes with polyphenolic compounds [40–42] and thus would decrease the concentrations of the inhibitor in the assay. […] In contrast, the phosphatase activity of PP2A was suppressed to a much lesser extent with weak (for trimer 9 and hexamer 11) and strong statistical significance (dimer 8 and tetramer 10). Thus our results corroborate the data reported previously.
DiFMUP assay for PP1: In a final reaction volume of 100 μL PP1c (2 mU final concentration, according to manufacturer’s instructions) were incubated with decreasing concentrations of the inhibitory polyphenols for 30 minutes at 25°C. The assay buffer contained 25 mM imidazole (pH 7.4), 1 mM dithiothreitol (DTT), and 50 mM NaCl. Bovine serum albumin (BSA) was excluded due to possible binding of the polyphenolic compounds. After the incubation time 20 μL DiFMUP (6,8-Difluoro-4-methylumbelliferyl phosphate) was added to reach a final concentration of 100 μM. Monitoring of the fluorescent dephosphorylation product was monitored and data analyzed as described above.

Q: How did the “cell migration, wound healing” value ([1]; 50 μM) turn out when `Oc1cc(O)c2c(c1)O[C@H](c1ccc(O)c(O)c1)[C@@H](O)[C@@H]2c1c(O)cc(O)c2c1O[C@H](c1ccc(O)c(O)c1)[C@@H](O)C2` [Procyanidin B3 (8), Procyanidin B3] was run?
A: The value was “did not significantly increase migration behavior”.

Q: What about the “cell migration, wound healing” value ([1]; 75 μM) of the same compound?
A: The value was “did not significantly increase the migration speed”.

Q: What about the IC50 (PP1) of the same compound?
A: The IC50 was 383 ± 43 µM.

Q: With `Oc1cc(O)c2c(c1)O[C@H](c1ccc(O)c(O)c1)[C@@H](O)[C@@H]2c1c(O)cc(O)c2c1O[C@H](c1ccc(O)c(O)c1)[C@@H](O)[C@@H]2c1c(O)cc(O)c2c1O[C@H](c1ccc(O)c(O)c1)[C@@H](O)C2` [Procyanidin C2 (9), Procyanidin C2] as the compound, how does the “migration, wound healing, PRLs blocked with analog 3” value ([1]; 25 μM of 9 plus 35 μM analog 3, PRL-3 overexpressing cells) read?
A: The value was “the same as for the empty vector cell line”.

Q: What about the “cell migration, wound healing” value ([1]; 25 μM) of the same compound?
A: Its value is “did not decrease significantly”.

Q: And the “migration speed, wound healing, PRLs blocked with analog 3” value ([1]; 50 μM of 9 plus 35 μM analog 3, PRL-3 overexpressing cells)?
A: The value was “exactly the same as for the empty vector cell line”.

Q: What about the “cell migration, wound healing” value ([1]; 50 μM) of the same compound?
A: The value was “significant decrease in cell migration”.

Q: What about the IC50 (PP1) of the same compound?
A: Its IC50 is 88 ± 13.7 µM.
